Columns and labels:
Phosphodiesterase 4 [1] = biological target: T1, Phosphodiesterase 4 (Homo sapiens, UniProt P27815+Q08499+Q07343+Q08493); experiment: Inhibition of rolipram binding to Phosphodiesterase 4; type: protein assay
Phosphodiesterase 4 [2] = biological target: T1, Phosphodiesterase 4; experiment: Inhibition of cAMP-specific Phosphodiesterase 4 (PDE IV); type: protein assay

| SMILES | Kd (Phosphodiesterase 4 [1]) | Ki (Phosphodiesterase 4 [2]) |
| --- | --- | --- |
| O=C1CC(c2cc3c(c(OC4CCCC4)c2)OCCC3)CN1 (configuration not stated) | 0.21 µM | 1.17 µM |
| O=C1CC(c2ccc3c(c2)OC2(CCCCC2)O3)CN1 (configuration not stated) | 16.5 µM | 63.9 µM |
| O=C1CC(c2ccc3c(c2)OCO3)CN1 (configuration not stated) | > 100 µM | > 100 µM |
| O=C1CC(c2cc(OC3CCCC3)c3occc3c2)CN1 (configuration not stated) | 0.03 µM | 0.26 µM |
| O=C1CC(c2ccc3c(c2)OCCO3)CN1 (configuration not stated) | > 100 µM | > 100 µM |
| O=C1CC(c2cc3c(c(OC4CCCC4)c2)OCC3)CN1 (configuration not stated) | 4 µM | 3.69 µM |
